Data taken from PubChem BioAssay AID1194 (EPA DSSTox, 2008).
The source made the active and inactive calls.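 The calls were made as follows: active = chemicals rated mutagenic or weakly mutagenic in the Salmonella bacterial test by one literature review, or positive overall by another; inconclusive = no clear call, values can overlap the other calls; inactive = the rest.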

Test system: Salmonella typhimurium Ames mutagenicity, literature compiled
Experiment: DSSTox (CPDBAS) Carcinogenic Potency Database Salmonella Mutagenicity
In short: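 Calls derive from published evaluations rather than new testing; overall "positive" in EPA Gene-Tox, or "mutagenic"/"weakly mutagenic" per Zeiger, counts as active.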

SMILES	outcome
COc1cc(CNC(=O)CCCC/C=C/C(C)C)ccc1O	inactive; active
ClC(Cl)(Cl)C(Cl)(Cl)Cl	inactive; active
CCCCOC(=O)c1ccc(O)cc1	inactive; active
C1COCCO1	inactive; inconclusive
C=CC(O)c1ccc(OC)cc1 (centres undefined)	inactive; active
CCCNC(=O)NS(=O)(=O)c1ccc(Cl)cc1	inactive; active
Clc1cc2c(cc1Cl)Oc1cc(Cl)c(Cl)cc1O2	inactive; active
CCC[N+](=O)[O-]	inactive; active
CCCCCCCCCCCCCCCC(=O)OC/C=C(C)/C=C/C=C(C)/C=C/C1=C(C)CCCC1(C)C	inactive; active
Cc1cc(Cc2ccc(N)c(C)c2)ccc1N	active
Nc1ccc(N=Nc2ccc(-c3ccc(N=Nc4c(S(=O)(=O)O)cc5cc(S(=O)(=O)O)c(N=Nc6ccccc6)c(O)c5c4N)cc3)cc2)c(N)c1	active
c1ccoc1	inactive
Nc1ccc(Cl)c(N)c1	active; inactive
C=C1C(CCl)(CCl)C2(Cl)C(Cl)C(Cl)C1(Cl)C2(Cl)Cl (centres undefined)	active; inactive
CN(C)CNc1nnc(/C=C/c2ccc([N+](=O)[O-])o2)o1	active
Cc1ccc(S(=O)(=O)NC(=O)NN2CCCCCC2)cc1	inactive; active
CCOc1ccc(NC(C)=O)cc1	active; inactive
COS(C)(=O)=O	active
CNNC	active
C=C(Cl)CSC(=S)N(CC)CC	active; inactive
Cn1cnc([N+](=O)[O-])c1Sc1ncnc2nc[nH]c12	active
Nc1cccc2c(N)cccc12	active
O=C1C=C2C(=CCOC2O)O1 (centres undefined)	inactive; active
COC(C)(C)C	inactive; active
